# According to publication PMC9043997, “LEAP2 reduces postprandial glucose excursions and ad libitum food intake in healthy men” (Cell Reports Medicine, 2022):
# Where a SMILES comes first, the peptide text is derived from it. Bridges are numbered along the chain shown (N, C = ends).
# Key:
# [1] = tested on: healthy men; experiment: Indirect calorimetry and renal urea excretion; assay type: in vivo, human; settings: iv LEAP2 ~25 pmol/kg/min
# Experimental: Resting energy expenditure and respiratory quotient were measured by indirect calorimetry (Vyntus CPX Canopy; Vyaire Medical, Höchberg, Germany) for 15 min at timepoints −25 (baseline), 45, 120 and 240 min, with the participants awake and in a supine position from 5 min prior to each test. Participants rested in a hospital bed for 30 min before the first test and throughout the experimental day. The gas and flow analyzers were calibrated before each test. The first 5 min and the last minute of data collection were subsequently discarded, and the mean of a 5-min steady state period defined as a coefficient of variation <10% for VO2 and CO2 was used to estimate resting energy expenditure and respiratory quotient for each test. The 5-min steady state period with the lowest resting energy expenditure and with a respiratory quotient between 0.7 and 1.0 was considered. In a few cases without a 5-min steady state period, a 4-min steady state period was considered.[35]^,[36] In the present study, a steady state period of 5 min was successfully reached in […] out of 160 tests. One participant was excluded from the subsequent data analysis due to no steady state period in any of the four tests during an experimental day. A 4-min steady state period was considered in six cases reaching a total of 23 excluded tests from the data analysis.
# To assess the amount of protein breakdown after the liquid mixed meal, urine samples were collected at timepoints 135 and 255 min for measurement of renal urea excretion and total urine production. At timepoint 60 min, 5 min prior to ingestion of the liquid mixed meal, participants were asked to empty their urinary bladder.
# [2] = tested on: healthy men; experiment: Ad libitum meal test at the end of the infusion period; assay type: in vivo, human; settings: healthy men n = 20, iv LEAP2 ~25 pmol/kg/min
# Experimental: The infusion was terminated when participants had finished eating.
# Unless otherwise stated, results are presented as mean ± SEM. Baseline values were calculated as a mean of timepoints −35, −10 and 0 min or, when only available −10 and 0 min. Baseline values for the postprandial period were calculated as a mean of timepoint 60 min. Calculations of AUC were based on the trapezoidal rule. AUC values are reported for the period 0 to 255 min. To assess the fasting and postprandial periods separately, AUC values are reported for the periods 0 to 60 min and 60 to 255 min, respectively. Student’s paired t test was used to test for differences in baseline, peak, time to peak, AUC and mean values and ad libitum food intake in men. Indirect calorimetry and thermal imaging data were fitted to a repeated-measures mixed effects model with the intervention and timepoints as independent variables with interaction and Geisser-Greenhouse correction. Šidák’s post hoc test was used to compare LEAP2 to placebo for each timepoint. For analysis of endogenous LEAP2 concentrations in response to a liquid mixed meal test, postprandial data during placebo infusion were fitted to a repeated-measures mixed effects model with time as a fixed effect and the individual participant as a random effect with Geisser-Greenhouse correction. Dunnett’s post hoc test was used to compare endogenous LEAP2 concentrations at each timepoint (75 to 255 min) to the postprandial baseline. Mouse plasma glucose, food intake and insulin data were analyzed by a repeated-measures two-way ANOVA with Šidák’s post hoc test. Statistical analyses were carried out using GraphPad Prism v9.0.0 and v9.1.1 (GraphPad Software, San Diego, California). A two-sided p value < 0.05 was considered statistically significant. The population size calculation was based on data from a previous study investigating the reproducibility of an ad libitum meal in healthy men.[41] Eighteen participants were needed to detect a difference of minimum 500 kJ in ad libitum food intake with a with-in subject difference of 739 kJ, a power of 80% and the above-mentioned significance level. To ensure sufficient power, 20 participants were included.
# [3] = tested on: GHSR-null mice; experiment: Plasma glucose and food intake after subcutaneous LEAP2 in GHSR-null mice; assay type: in vivo, mouse; settings: female GHSR-null mice n = 8, LEAP2 3 μmol/kg subcutaneous
# Experimental: Food intake and blood glucose measurements were measured in female GHSR-null mice (n = 8) and wild-type littermates (n = 10) (14–24 weeks of age). Mice were double-housed with matching genotype and age. All mice were fasted for four hours and randomized by mean body weight per cage and allocated into either vehicle (saline) or LEAP2 administration on the first day of the study. LEAP2 or vehicle was administered subcutaneously just before start of dark phase (6 PM). By start of dark phase, mice had ad libitum access to water and a normal chow diet. Cumulative food intake was measured one, two and four hours after administration and calculated as the average food intake per cage per g body weight of each mouse, respectively. Blood glucose was measured in blood from a tail puncture at baseline and one, two and four hours after administration by use of a glucometer (Contour ™xt meter; Ascensia Diabetes Care, Basel, Switzerland). One week later, mice underwent the same procedure, but with the opposite treatment. The concentration of the LEAP2 dose was 3 μmol/kg.
# [4] = tested on: wild-type mice; experiment: Fasting insulin and plasma glucose after subcutaneous LEAP2 in fasted wild-type mice; assay type: in vivo, mouse; settings: fasted female wild-type mice, LEAP2 3 μmol/kg subcutaneous
# Experimental: For fasting insulin and glucose concentrations, females (15 weeks of age) were used. Mice were housed four mice per cage. On the experimental day, mice were fasted from four hours before subcutaneous administration until end of the study and randomized by body weight into either vehicle (saline) or LEAP2 dosing (3 μmol/kg). Blood samples were collected at timepoints −60, 20 and 60 min from the retro-orbital vein plexus using EDTA-coated capillary tubes. Plasma was subsequently separated from the blood after centrifugation (3,000 g, 4°C, 5 min) and stored at −80°C until analysis. Blood glucose was measured at timepoints −60, 20 and 60 min from eye blood and at timepoint 0 min from a tail puncture by use of the same glucometer (Contour ™xt meter; Ascensia Diabetes Care, Basel, Switzerland). Mouse plasma insulin concentrations were determined by use of a Mouse/Rat Insulin Kit (cat: K152BZC-1; Meso Scale Discovery, Gaithersburg, Maryland, USA). The assay was performed according to the manufacturer’s instructions, and the plate was measured by use of MESO QuickPlex SQ 120.
compound,measurement,setting,value
"CC[C@H](C)[C@@H]1NC(=O)[C@@H]2CSSC[C@@H](C(=O)N[C@@H](CO)C(=O)N[C@@H](CC(C)C)C(=O)N[C@@H](CO)C(=O)N[C@H](C(=O)N[C@@H](C)C(=O)N[C@@H](CCC(N)=O)C(=O)N[C@@H](CCC(=O)O)C(=O)O)C(C)C)NC(=O)[C@H](CCCNC(=N)N)NC(=O)[C@H](CCCNC(=N)N)NC(=O)[C@H](CCCCN)NC(=O)[C@H](CCCNC(=N)N)NC(=O)[C@H](CSSC[C@H](NC(=O)[C@H](CO)NC(=O)[C@H](C)NC(=O)CNC(=O)[C@@H](NC(=O)[C@@H]3CCCN3C(=O)[C@H](CCCNC(=N)N)NC(=O)[C@H](CC(C)C)NC(=O)[C@H](CO)NC(=O)[C@@H](NC(=O)CNC(=O)[C@H](CCCNC(=N)N)NC(=O)[C@H](Cc3c[nH]c4ccccc34)NC(=O)[C@H](Cc3ccccc3)NC(=O)[C@@H]3CCCN3C(=O)[C@@H](NC(=O)[C@@H](N)CCSC)[C@@H](C)O)C(C)C)[C@@H](C)CC)C(=O)N[C@@H](CCCNC(=N)N)C(=O)N[C@@H](CC(=O)O)C(=O)N[C@@H](CC(=O)O)C(=O)N[C@@H](CO)C(=O)N[C@@H](CCC(=O)O)C(=O)N2)NC(=O)[C@H](CC(C)C)NC(=O)[C@H](CCCNC(=N)N)NC(=O)[C@H]([C@@H](C)O)NC1=O [LEAP2, liver-expressed antimicrobial peptide 2] (H-MTPFWRGVSLRPIGASCRDDSECITRLCRKRRCSLSVAQE-OH; disulfide 17-28, 23-33 (inferred); N-terminus and C-terminus assumed)","resting energy expenditure, LEAP2 vs placebo",[1]; indirect calorimetry,no differences
same,"respiratory quotient, LEAP2 vs placebo","[1]; indirect calorimetry, data not shown",no differences
same,"renal urea excretion, LEAP2 vs placebo","[1]; two consecutive time points (135 and 255 min) or total, data not shown",no difference
same,mean difference in ad libitum food intake per kg body weight (placebo vs LEAP2),"[2]; 95% CI, p = 0.0029",5.4 kJ/kg
same,mean difference in total ad libitum food intake (placebo vs LEAP2),"[2]; 95% CI, p = 0.0041",432 kJ
same,mean difference in duration of the ad libitum meal (placebo vs LEAP2),"[2]; 95% CI, p = 0.0303",1.5 min
same,reduction in energy intake during ad libitum meal compared with placebo,[2]; pasta Bolognese served 260 min after start of infusion,~12%
same,cumulative food intake after dosing vs vehicle,[3],no effect
same,plasma glucose after dosing vs vehicle,[3],did not affect plasma glucose
same,fasting plasma glucose concentrations vs vehicle,[4],did not affect fasting plasma glucose concentrations
same,fasting insulin concentrations vs vehicle,[4]; 20 and 60 min,no effect
